Consider 12 molecules from patent publication US9598433B2, “Hepatitis C virus inhibitors” (BRISTOL-MYERS SQUIBB COMPANY, priority 2012, dated 2017).

pEC50: −log10 of the molar value. Read-outs that look alike come from different tables or passages of the source.

Assay [1] concerns HCV genotype 1a (H77 strain) replicon in HUH-7 cells. In words: HCV replicon luciferase reporter assay, genotype 1a. The note with it: Hepatitis C virus, 72 h, genotype 1a replicon, 3 days incubation. In kind it is cell-based. The method, boiled down:
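Stable HUH-7 line carrying luciferase-reporter genotype 1a (H77) replicon with adaptive NS3 P1496L and NS5A S2204I mutations; 3.0×10^3 cells/well in 4% FCS, 0.5% DMSO, twenty-point 3-fold titration, 3 days at 37 °C. Renilla luminescence with 7.5 μM EnduRen; EC50 by four-parameter logistic fit; CC50 by multiplexed Cell Titer-Blue.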
Background: Replicon systems follow genome replication, usually without infectious particles.

Assay [2] concerns HCV genotype 1b (Con1) replicon in HUH-7 cells. Put plainly: HCV replicon luciferase reporter assay, genotype 1b. Format: cell-based. The note with it: Hepatitis C virus, 72 h, genotype 1b replicon, 3 days incubation. Put shortly:
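The HUH-7 cells stably carried a genotype 1b Con1 replicon with a Renilla luciferase reporter and the S1179I adaptive mutation. Luminescence was read after 2 h with 7.5 μM EnduRen, and EC50s came from four-parameter logistic fits.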

Broadly, the pEC50 is −log10 of the EC50, conventionally taken in molar units. On to `COc1cnc(O[C@@H]2C[C@H]3C(=O)N[C@]4(C(=O)NS(=O)(=O)C5(C)CC5)C[C@H]4/C=C\CO[C@@H](C)C[C@@H](C)[C@H](NC(=O)OC(C)(C)C)C(=O)N3C2)c2ccccc12` [Compound 2601, tert-butyl ((2R,6S,7R,9S,13aS,14aR,16aS,Z)-2-((4-methoxyisoquinolin-1-yl)oxy)-7,9-dimethyl-14a-(((1-methylcyclopropyl)sulfonyl)carbamoyl)-5,16-dioxo-2,3,5,6,7,8,9,11,13a,14,14a,15,16,16a-tetradecahydro-1H-cyclopropa[e]pyrrolo[2,1-i][1,7,10]oxadiazacyclopentadecin-6-yl)carbamate], for which the pEC50 in assay [1] (read-out: LE_1a (EC50, range)) was 8.30 to 9.00; in assay [2] (read-out: LE_1b (EC50, range)) it was 8.30 to 9.00.

Consider `COc1ccc2c(O[C@@H]3C[C@H]4C(=O)N[C@]5(C(=O)NS(=O)(=O)C6CC6)C[C@H]5/C=C\CO[C@@H](C)C[C@@H](C)[C@H](NC(=O)OC(C)(C)C)C(=O)N4C3)nccc2c1` [Compound 2603, tert-butyl ((2R,6S,7R,9S,13a5,14aR,16aS,Z)-14a-((cyclopropylsulfonyl)carbamoyl)-2-((6-methoxyisoquinolin-1-yl)oxy)-7,9-dimethyl-5,16-dioxo-2,3,5,6,7,8,9,11,13a,14,14a,15,16,16a-tetradecahydro-1H-cyclopropa[e]pyrrolo[2,1-i][1,7,10]oxadiazacyclopentadecin-6-yl)carbamate], for which the pEC50 in assay [1] (read-out: LE_1a (EC50)) is 8.04; in assay [1] (read-out: LE_1a (EC50, range)), 7.46 to 8.30; in assay [2] (read-out: LE_1b (EC50)), 8.18; in assay [2] (read-out: LE_1b (EC50, range)), 7.46 to 8.30.

`COc1ccc2c(O[C@@H]3C[C@H]4C(=O)N[C@]5(C(=O)NS(=O)(=O)C6CC6)C[C@H]5/C=C\CO[C@@H](C)C[C@@H](C)[C@H](NC(=O)OC(C)(C)C(F)(F)F)C(=O)N4C3)nccc2c1` [Compound 2604, 1,1,1-trifluoro-2-methylpropan-2-yl ((2R,6S,7R,9S,13aS,14aR,16aS,Z)-14a-((cyclopropylsulfonyl)carbamoyl)-2-((6-methoxyisoquinolin-1-yl)oxy)-7,9-dimethyl-5,16-dioxo-2,3,5,6,7,8,9,11,13a,14,14a,15,16,16a-tetradecahydro-1H-cyclopropa[e]pyrrolo[2,1-i][1,7,10]oxadiazacyclopentadecin-6-yl)carbamate]: the negative-log EC50 (pEC50) in assay [1] (read-out: LE_1a (EC50, range)) was 7.46 to 8.30; in assay [2] (read-out: LE_1b (EC50, range)), 8.30 to 9.00.

For `CC[C@@H]1O[C@H](C)CC/C=C\[C@@H]2C[C@@]2(C(=O)NS(=O)(=O)C2(C)CC2)NC(=O)[C@@H]2C[C@@H](Oc3ncc(OC)c4ccc(F)cc34)CN2C(=O)[C@H]1NC(=O)OC(C)(C)C(C)(F)F` [Compound 2605, 3,3-difluoro-2-methylbutan-2-yl ((2R,6S,7S,9R,13aS,14aR,16aS,Z)-7-ethyl-2-((7-fluoro-4-methoxyisoquinolin-1-yl)oxy)-9-methyl-14a-(((1-methylcyclopropyl)sulfonyl)carbamoyl)-5,16-dioxo-2,3,5,6,7,9,10,11,13a,14,14a,15,16,16a-tetradecahydro-1H-cyclopropa[i]pyrrolo[1,2-e][1,5,8]oxadiazacyclopentadecin-6-yl)carbamate], the negative logarithm of the EC50 (pEC50) was 9.00 to 9.29 in assay [1] (read-out: LE_1a (EC50, range)) and 9.30 to 10.00 in assay [2] (read-out: LE_1b (EC50, range)).

For the molecule `CC[C@@H]1O[C@H](C)CC/C=C\[C@@H]2C[C@@]2(C(=O)NS(=O)(=O)C2(C)CC2)NC(=O)[C@@H]2C[C@@H](Oc3ncc(OC)c4ccc(F)cc34)CN2C(=O)[C@H]1NC(=O)OC(C)(C)C(F)(F)F` [Compound 2606], the pEC50 in assay [1] (read-out: LE_1a (EC50, range)) was 9.00 to 9.29; in assay [2] (read-out: LE_1b (EC50, range)) it was 9.30 to 10.00.

As for `CCOc1cc2ccnc(O[C@@H]3C[C@H]4C(=O)N[C@]5(C(=O)NS(=O)(=O)C6(C)CC6)C[C@H]5/C=C\CC[C@@H](C)O[C@@H](CC)[C@H](NC(=O)OC(C)(C)C(C)(F)F)C(=O)N4C3)c2cc1F` [Compound 2607, 3,3-difluoro-2-methylbutan-2-yl ((2R,6S,7S,9R,13 aS,14aR,16aS,Z)-2-((6-ethoxy-7-fluoroisoquinolin-1-yl)oxy)-7-ethyl-9-methyl-14a-(((1-methylcyclopropyl)sulfonyl)carbamoyl)-5,16-dioxo-2,3,5,6,7,9,10,11,13a,14,14a,15,16,16a-tetradecahydro-1H-cyclopropa[i]pyrrolo[1,2-e][1,5,8]oxadiazacyclopentadecin-6-yl)carbamate], the negative-log EC50 (pEC50) is 9.00 to 9.29 in assay [1] (read-out: LE_1a (EC50, range)) and 9.30 to 10.00 in assay [2] (read-out: LE_1b (EC50, range)).

`CCOc1cc2ccnc(O[C@@H]3C[C@H]4C(=O)N[C@]5(C(=O)NS(=O)(=O)C6(C)CC6)C[C@H]5/C=C\CC[C@@H](C)O[C@@H](CC)[C@H](NC(=O)OC(C)(C)C(F)(F)F)C(=O)N4C3)c2cc1F` [Compound 2608, 1,1,1-trifluoro-2-methylpropan-2-yl ((2R,6S,7S,9R,13aS,14aR,16aS,Z)-2-((6-ethoxy-7-fluoroisoquinolin-1-yl)oxy)-7-ethyl-9-methyl-14a-(((1-methylcyclopropyl)sulfonyl)carbamoyl)-5,16-dioxo-2,3,5,6,7,9,10,11,13a,14,14a,15,16,16a-tetradecahydro-1H-cyclopropa[i]pyrrolo[1,2-e][1,5,8]oxadiazacyclopentadecin-6-yl)carbamate]: the pEC50 is 9.00 to 9.29 in assay [1] (read-out: LE_1a (EC50, range)) and 9.30 to 10.00 in assay [2] (read-out: LE_1b (EC50, range)).

Turning to `CC[C@@H]1O[C@H](C)CC/C=C\[C@@H]2C[C@@]2(C(=O)NS(=O)(=O)C2(C)CC2)NC(=O)[C@@H]2C[C@@H](Oc3nccc4c5c(ccc34)OCCO5)CN2C(=O)[C@H]1NC(=O)OC(C)(C)C(C)(F)F` [Compound 2609, 3,3-difluoro-2-methylbutan-2-yl ((2R,6S,7S,9R,13aS,14aR,16aS,Z)-2-((2,3-dihydro-[1,4]dioxino[2,3-f]isoquinolin-7-yl)oxy)-7-ethyl-9-methyl-14a-(((1-methylcyclopropyl)sulfonyl)carbamoyl)-5,16-dioxo-2,3,5,6,7,9,10,11,13a,14,14a,15,16,16a-tetradecahydro-1H-cyclopropa[i]pyrrolo[1,2-e][1,5,8]oxadiazacyclopentadecin-6-yl)carbamate], the pEC50 in assay [1] (read-out: LE_1a (EC50, range)) was 8.30 to 9.00; in assay [2] (read-out: LE_1b (EC50, range)) it was 9.00 to 9.29.

For `CC[C@@H]1O[C@H](C)CC/C=C\[C@@H]2C[C@@]2(C(=O)NS(=O)(=O)C2(C)CC2)NC(=O)[C@@H]2C[C@@H](Oc3nccc4c5c(ccc34)OCCO5)CN2C(=O)[C@H]1NC(=O)OC(C)(C)C(F)(F)F` [Compound 2610, 1,1,1-trifluoro-2-methylpropan-2-yl ((2R,6S,7S,9R,13aS,14aR,16aS,Z)-2-((2,3-dihydro-[1,4]dioxino[2,3-f]isoquinolin-7-yl)oxy)-7-ethyl-9-methyl-14a-(((1-methylcyclopropyl)sulfonyl)carbamoyl)-5,16-dioxo-2,3,5,6,7,9,10,11,13a,14,14a,15,16,16a-tetradecahydro-1H-cyclopropa[i]pyrrolo[1,2-e][1,5,8]oxadiazacyclopentadecin-6-yl)carbamate], the negative logarithm of the EC50 (pEC50) in assay [1] (read-out: LE_1a (EC50, range)) was 8.30 to 9.00; in assay [2] (read-out: LE_1b (EC50, range)) it was 9.00 to 9.29.

For the molecule `CC[C@@H]1O[C@H](C)CC/C=C\[C@@H]2C[C@@]2(C(=O)NS(=O)(=O)C2(C)CC2)NC(=O)[C@@H]2C[C@@H](Oc3nccc4c5c(ccc34)OCCO5)CN2C(=O)[C@H]1NC(=O)OC(C)(C)C` [Compound 2611, tert-butyl ((2R,6S,7S,9R,13aS,14aR,16aS,Z)-2-((2,3-dihydro-[1,4]dioxino[2,3-f]isoquinolin-7-yl)oxy)-7-ethyl-9-methyl-14a-(((1-methylcyclopropyl)sulfonyl)carbamoyl)-5,16-dioxo-2,3,5,6,7,9,10,11,13a,14,14a,15,16,16a-tetradecahydro-1H-cyclopropa[i]pyrrolo[1,2-e][1,5,8]oxadiazacyclopentadecin-6-yl)carbamate], the negative logarithm of the EC50 (pEC50) in assay [1] (read-out: LE_1a (EC50, range)) was 8.30 to 9.00; in assay [2] (read-out: LE_1b (EC50, range)), 9.00 to 9.29.

As for `CC[C@@H]1O[C@H](C)CC/C=C\[C@@H]2C[C@@]2(C(=O)NS(=O)(=O)C2(C)CC2)NC(=O)[C@@H]2C[C@@H](Oc3nc(-c4ccc(OC(C)C)cn4)cc4cc(OC)ccc34)CN2C(=O)[C@H]1NC(=O)OC(C)(C)C(F)(F)F` [Compound 2612, 1,1,1-trifluoro-2-methylpropan-2-yl ((2R,6S,7S,9R,13aS,14aR,16aS,Z)-7-ethyl-2-((3-(5-isopropoxypyridin-2-yl)-6-methoxyisoquinolin-1-yl)oxy)-9-methyl-14a-(((1-methylcyclopropyl)sulfonyl)carbamoyl)-5,16-dioxo-2,3,5,6,7,9,10,11,13a,14,14a,15,16,16a-tetradecahydro-1H-cyclopropa[i]pyrrolo[1,2-e][1,5,8]oxadiazacyclopentadecin-6-yl)carbamate], the pEC50 is 8.30 to 9.00 in assay [1] (read-out: LE_1a (EC50, range)) and 8.30 to 9.00 in assay [2] (read-out: LE_1b (EC50, range)).

With `CC[C@@H]1O[C@H](C)CC/C=C\[C@@H]2C[C@@]2(C(=O)NS(=O)(=O)C2(C)CC2)NC(=O)[C@@H]2C[C@@H](Oc3nc(-c4ccc(OC(C)C)cn4)cc4cc(OC)ccc34)CN2C(=O)[C@H]1NC(=O)OC(C)(C)C(C)(F)F` [Compound 2613, 3,3-difluoro-2-methylbutan-2-yl ((2R,6S,7S,9R,13aS,14aR,16aS,Z)-7-ethyl-2-((3-(5-isopropoxypyridin-2-yl)-6-methoxyisoquinolin-1-yl)oxy)-9-methyl-14a-(((1-methylcyclopropyl)sulfonyl)carbamoyl)-5,16-dioxo-2,3,5,6,7,9,10,11,13a,14,14a,15,16,16a-tetradecahydro-1H-cyclopropa[i]pyrrolo[1,2-e][1,5,8]oxadiazacyclopentadecin-6-yl)carbamate], the pEC50 is 8.30 to 9.00 in assay [1] (read-out: LE_1a (EC50, range)) and 9.30 to 10.00 in assay [2] (read-out: LE_1b (EC50, range)).
